Read-outs that look alike come from different tables or passages of the source.
How the values were obtained:
SU-DHL-4 cells = test: Inhibitory effect on cell viability in SU-DHL-4 cell line (Test Example 1); type: cell-based, human; conditions: 72 hours; for IC50: SU-DHL-4 (wild type) cells, calculated using the measurement results of test example 1, read-out: SU-DHL-4 WT IC50; for IC90: SU-DHL-4 cells, Cell Counting Kit-8, concentration showing 90% inhibition of cell viability, read-out: SU-DHL-4 Cell Viability Inhibition Rate IC90
In short: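 SU-DHL-4 cells were grown at 37° C. under 5% CO2 in RPMI1640 with 10 vol % heat-inactivated FBS plus penicillin/streptomycin, seeded and precultured for 18 to 25 hours, then exposed to test compound at 0.1 vol % DMSO for 72 hours. Viability was read with Cell Counting Kit-8 by absorbance at 450 nm.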

[1] = test system: MYC mRNA expression in SU-DHL-4 cells; test: Suppressive effect on MYC mRNA expression (Test Example 2); type: cell-based, human; conditions: test compound 100 nmol/L, 6 hours, qRT-PCR corrected by ACTB, GAPDH; for Suppression Rate of MYC mRNA Expression (%): HPRT1; for inhibition at 0.1 µM: Homo sapiens, HPRT1, read-out: Suppression Rate of MYC mRNA Expression (%)
In short: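 SU-DHL-4 cells were treated for 6 h at 37 °C with compound (0.1% DMSO final). MYC mRNA was measured by TaqMan qRT-PCR and normalised to the geometric mean of ACTB, GAPDH and HPRT1. Suppression was calculated relative to untreated wells.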

IC50 (SU-DHL-4 cells) | IC90 (SU-DHL-4 cells) | IC50 (SU-DHL-4 cells; Homo sapiens) | IC90 (SU-DHL-4 cells; Homo sapiens) | Compound | Suppression Rate of MYC mRNA Expression (%) [1] | inhibition at 0.1 µM [1]
380 pM | 790 pM |  |  | CCC(=O)N1c2ccccc2[C@H](Nc2ccc(NC(=O)N3CCN(C(=O)C4CCC(N[C@@H]5C[C@H](C)N(C(=O)CC)c6ccccc65)CC4)CC3)cc2)C[C@@H]1C (stereo partly drawn) [Compound 7p, 4-((1R,4r)-4-(((2S,4R)-2-Methyl-1-propionyl-1,2,3,4-tetrahydroquinolin-4-yl)amino)cyclohexane-1-carbonyl)-N-(4-(((2S,4R)-2-methyl-1-propionyl-1,2,3,4-tetrahydroquinolin-4-yl)amino)phenyl)piperazine-1-carboxamide] | 97.9% | 
90 pM | 240 pM |  |  | CCC(=O)N1c2ccccc2[C@H](Nc2ccc(-c3nnc(CNC(=O)[C@H]4CC[C@H](N[C@@H]5C[C@H](C)N(C(=O)CC)c6ccccc65)CC4)o3)cc2)C[C@@H]1C [Compound 7q, (1R,4R)-4-(((2S,4R)-2-Methyl-1-propionyl-1,2,3,4-tetrahydroquinolin-4-yl)amino)-N-((5-(4-(((2S,4R)-2-methyl-1-propionyl-1,2,3,4-tetrahydroquinolin-4-yl)amino)phenyl)-1,3,4-oxadiazol-2-yl)methyl)cyclohexane-1-carboxamide] | 97.4% | 
290 pM | 500 pM |  |  | CCC(=O)N1c2ccccc2[C@H](Nc2ccc(NC(=O)CNC(=O)N[C@H]3CC[C@H](N[C@@H]4C[C@H](C)N(C(=O)CC)c5ccccc54)CC3)cc2)C[C@@H]1C [Compound 8j, 2-(3-((1R,4R)-4-(((2S,4R)-2-Methyl-1-propionyl-1,2,3,4-tetrahydroquinolin-4-yl)amino)cyclohexyl)ureido)-N-(4-(((2S,4R)-2-methyl-1-propionyl-1,2,3,4-tetrahydroquinolin-4-yl)amino)phenyl)acetamide] | 97.2% | 
300 pM | 470 pM |  |  | CCC(=O)N1c2ccccc2[C@H](Nc2ccc(C(=O)N3CC(C(=O)N[C@H]4CC[C@H](N[C@@H]5C[C@H](C)N(C(=O)CC)c6ccccc65)CC4)C3)cc2)C[C@@H]1C [Compound 8r, 1-(4-(((2S,4R)-2-Methyl-1-propionyl-1,2,3,4-tetrahydroquinolin-4-yl)amino)benzoyl)-N-((1R,4R)-4-(((2S,4R)-2-methyl-1-propionyl-1,2,3,4-tetrahydroquinolin-4-yl)amino)cyclohexyl)azetidine-3-carboxamide] | 96.7% | 
 |  | 210 pM |  | CCC(=O)N1c2ccccc2[C@H](Nc2ccc(NC(=O)CCCC(=O)Nc3ccc(N[C@@H]4C[C@H](C)N(C(=O)CC)c5ccccc54)nc3)cc2)C[C@@H]1C [Compound 10k, N^1-(4-(((2S,4R)-2-Methyl-1-propionyl-1,2,3,4-tetrahydroquinolin-4-yl)amino)phenyl)-N^5-(6-(((2S,4R)-2-methyl-1-propionyl-1,2,3,4-tetrahydroquinolin-4-yl)amino)pyridin-3-yl)glutaramide] |  | 97%
 |  | 510 pM |  | CCC(=O)N1c2ccccc2[C@H](Nc2ccc(-c3nnc(CNC(=O)C4CCN(Cc5cc(O)cc(-c6c(C)noc6C)c5)CC4)o3)cc2)C[C@@H]1C [Compound 12a, 1-(3-(3,5-Dimethylisoxazol-4-yl)-5-hydroxybenzyl)-N-((5-(4-(((2S,4R)-2-methyl-1-propionyl-1,2,3,4-tetrahydroquinolin-4-yl)amino)phenyl)-1,3,4-oxadiazol-2-yl)methyl)piperidine-4-carboxamide] |  | 98.5%
 |  | 2830 pM |  | CCC(=O)N1c2ccccc2[C@H](Nc2ccc(NC(=O)C3CN(C(=O)C4CCN(Cc5cc(O)cc(-c6c(C)noc6C)c5)CC4)C3)cc2)C[C@@H]1C [Compound 12b, 1-(1-(3-(3,5-Dimethylisoxazol-4-yl)-5-hydroxybenzyl)piperidine-4-carbonyl)-N-(4-(((2S,4R)-2-methyl-1-propionyl-1,2,3,4-tetrahydroquinolin-4-yl)amino)phenyl)azetidine-3-carboxamide] |  | 97.8%
 |  | 220 pM | 560 pM | CCC(=O)N1c2ccccc2[C@H](Nc2ccc(NC(=O)CCCC(=O)NC3CCN(Cc4cc(O)cc(-c5c(C)noc5C)c4)CC3)cc2)C[C@@H]1C [Compound 12c, N^1-(1-(3-(3,5-Dimethylisoxazol-4-yl)-5-hydroxybenzyl)piperidin-4-yl)-N^5-(4-(((2S,4R)-2-methyl-1-propionyl-1,2,3,4-tetrahydroquinolin-4-yl)amino)phenyl)glutaramide] |  | 97.8%
 |  | 260 pM |  | CCC(=O)N1c2ccccc2[C@H](Nc2ccc(SCCNC(=O)c3ccc(C4=N[C@@H](CC(=O)OCCN(C)C)c5nnc(C)n5-c5sc(C)c(C)c54)cc3)cc2)C[C@@H]1C [Compound 13a, 2-(Dimethylamino)ethyl 2-((S)-2,3,9-trimethyl-4-(4-((2-((4-(((2S,4R)-2-methyl-1-propionyl-1,2,3,4-tetrahydroquinolin-4-yl)amino)phenyl)thio)ethyl)carbamoyl)phenyl)-6H-thieno[3,2-f][1,2,4]triazolo[4,3-a][1,4]diazepin-6-yl)acetate] |  | 97.6%
530 pM | 1190 pM |  |  | CCC(=O)N1c2ccccc2[C@H](Nc2ccc(C(=O)NCCCNC(=O)c3ccc(C4=N[C@@H](CC(=O)OC5CCC(O)CC5)c5nnc(C)n5-c5sc(C)c(C)c54)cc3)cc2)C[C@@H]1C (stereo partly drawn) [Compound 13d, 4-Hydroxycyclohexyl 2-((S)-2,3,9-trimethyl-4-(4-((3-(4-(((2S,4R)-2-methyl-1-propionyl-1,2,3,4-tetrahydroquinolin-4-yl)amino)benzamide)propyl)carbamoyl)phenyl)-6H-thieno[3,2-f][1,2,4]triazolo[4,3-a][1,4]diazepin-6-yl)acetate] | 97.2% | 
300 pM | 340 pM |  |  | CCC(=O)N1c2ccccc2[C@H](Nc2ccc(C(=O)NCCCNC(=O)c3ccc(C4=N[C@@H](CC(=O)OCCCOC)c5nnc(C)n5-c5sc(C)c(C)c54)cc3)cc2)C[C@@H]1C [Compound 13h, 3-Methoxypropyl 2-((S)-2,3,9-trimethyl-4-(4-((3-(4-(((2S,4R)-2-methyl-1-propionyl-1,2,3,4-tetrahydroquinolin-4-yl)amino)benzamide)propyl)carbamoyl)phenyl)-6H-thieno[3,2-f][1,2,4]triazolo[4,3-a][1,4]diazepin-6-yl)acetate] | 97.4% | 
 |  | 17 pM |  | CCC(=O)N1c2ccccc2[C@H](Nc2ccc(-c3cnn(CC(=O)Nc4ccc(C5=NCc6nnc(C)n6-c6sc(C)c(C)c65)cc4)c3)cc2)C[C@@H]1C [Compound 14a, 2-(4-(4-(((2S,4R)-2-Methyl-1-propionyl-1,2,3,4-tetrahydroquinolin-4-yl)amino)phenyl)-1H-pyrazol-1-yl)-N-(4-(2,3,9-trimethyl-6H-thieno[3,2-f][1,2,4]triazolo[4,3-a][1,4]diazepin-4-yl)phenyl)acetamide] |  | 97.1%
 |  | 100 pM |  | CCC(=O)N1c2ccccc2[C@H](Nc2ccc(NC(=O)COCC(=O)Nc3ccc(C4=NCc5nnc(C)n5-c5sc(C)c(C)c54)cc3)cc2)C[C@@H]1C [Compound 14d, N-(4-(((2S,4R)-2-Methyl-1-propionyl-1,2,3,4-tetrahydroquinolin-4-yl)amino)phenyl)-2-(2-oxo-2-((4-(2,3,9-trimethyl-6H-thieno[3,2-f][1,2,4]triazolo[4,3-a][1,4]diazepin-4-yl)phenyl)amino)ethoxy)acetamide] |  | 97.4%
 |  | 210 pM |  | Cc1sc2c(c1C)C(c1ccc(NC(=O)C#CCNC(=O)c3ccc(C4=NCc5nnc(C)n5-c5sc(C)c(C)c54)cc3)cc1)=NCc1nnc(C)n1-2 [Compound 14e, N-(4-Oxo-4-((4-(2,3,9-trimethyl-6H-thieno[3,2-f][1,2,4]triazolo[4,3-a][1,4]diazepin-4-yl)phenyl)amino)but-2-yn-1-yl)-4-(2,3,9-trimethyl-6H-thieno[3,2-f][1,2,4]triazolo[4,3-a][1,4]diazepin-4-yl)benzamide] |  | 96.7%
 |  | 140 pM |  | CCC(=O)N1c2ccccc2[C@H](Nc2ccc(NC(=O)CNC(=O)Nc3ccc(C4=NCc5nnc(C)n5-c5sc(C)c(C)c54)cc3)cc2)C[C@@H]1C [Compound 14f, N-(4-(((2S,4R)-2-Methyl-1-propionyl-1,2,3,4-tetrahydroquinolin-4-yl)amino)phenyl)-2-(3-(4-(2,3,9-trimethyl-6H-thieno[3,2-f][1,2,4]triazolo[4,3-a][1,4]diazepin-4-yl)phenyl)ureido)acetamide] |  | 97.3%
 |  | 1000 pM |  | Cc1sc2c(c1C)C(c1ccc(C(=O)N3CCC(NC(=O)c4ccc(C5=N[C@@H](CC(=O)OC(C)(C)C)c6nnc(C)n6-c6sc(C)c(C)c65)cc4)CC3)cc1)=NCc1nnc(C)n1-2 [Compound 14p, tert-Butyl (S)-2-(2,3,9-trimethyl-4-(4-((1-(4-(2,3,9-trimethyl-6H-thieno[3,2-f][1,2,4]triazolo[4,3-a][1,4]diazepin-4-yl)benzoyl)piperidin-4-yl)carbamoyl)phenyl)-6H-thieno[3,2-f][1,2,4]triazolo[4,3-a][1,4]diazepin-6-yl)acetate] |  | 97.6%
